This passage reports inhibition of growth and pest or weed control results from US11155517B2, “4-substituted phenylamine derivatives and their use to protect crops by fighting undesired phytopathogenic micoorganisms” (PI INDUSTRIES LTD., priority 2016, dated 2021).

The test system of assay [1] is Pyricularia oryzae. As to the kind of experiment: microbe, parasite or virus in culture. It counts as cell-based. As to conditions: 168 h, read-out: % control compared to the untreated check (radial growth).
The next assay relates to Rhizoctonia solani. As to the kind of experiment: Rhizoctonia solani (rice sheath blight/potato black scurf) in vitro test, radial growth on Potato Dextrose Agar. It counts as cell-based. The settings on record: 168 h, 300 ppm, seven days, 25° C., read-out: % control compared to the untreated check (radial growth).
A further assay has as its system Botrytis cinerea. As to the kind of experiment: Botrytis cinerea (gray mold) in vitro test, radial growth on Potato Dextrose Agar. It counts as cell-based. The settings on record: 168 h, 300 ppm, seven days, 22° C., read-out: % (control) compared to the untreated check (radial growth).
Assay [2] concerns Alternaria solani. As to the kind of experiment: Alternaria solani (early blight of tomato/potato) in vitro test, radial growth on Potato Dextrose Agar. It counts as cell-based. As to conditions: 168 h, 300 ppm, seven days, 25° C., read-out: % control compared to the untreated check (radial growth).
The next assay relates to Colletotrichum capsici. As to the kind of experiment: Colletotrichum capsici (anthracnose) in vitro test, radial growth on Potato Dextrose Agar. It counts as cell-based. The settings on record: Colletotrichum truncatum, 168 h; 300 ppm; seven days, 25° C.; read-out: % control compared to the untreated check (radial growth).
In another assay the test system is Septoria lycopersici. As to the kind of experiment: Septoria lycopersici (leaf spot of tomato) in vitro test, radial growth on Potato Dextrose Agar. In kind it is cell-based. As to conditions: 168 h, seven days, 25° C., read-out: % control compared to the untreated check (radial growth).
Assay [3] deals with Fusarium culmorum. As to the kind of experiment: Fusarium culmorum (foot rot of cereals) in vitro test, radial growth on Potato Dextrose Agar. It counts as cell-based. The settings on record: Fusarium culmorum, 168 h, read-out: % control compared to the untreated check (radial growth).
The test system of assay [4] is Pyricularia oryzae. As to the kind of experiment: whole plant or invertebrate. In kind it is in vivo. As to conditions: 24 h, read-out: Efficacy (% control), disease severity vs untreated check.
In assay [5] the test system is Fusarium culmorum. As to the kind of experiment: Greenhouse Fusarium culmorum test in wheat, preventive. In kind it is in vivo. The settings on record: 24 h, read-out: Efficacy (% control), disease severity vs untreated check. In outline: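 Young greenhouse wheat sprayed preventively at stated rates (compounds in 2% DMSO/acetone, diluted in water), inoculated one day later with 2×10^6 Fusarium culmorum spores in 2% malt, held at 24 °C, 80-90% RH. Disease severity (0-100%) rated 3, 7, 10 and 15 days after application; % control versus untreated, phytotoxicity also recorded.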

For a further assay, the system named is Botrytis cinera. As to the kind of experiment: Greenhouse Botrytis cinera test in tomato, preventive. The settings on record: 24 h, plants sprayed one day before inoculation, read-out: Efficacy (% control), disease severity vs untreated check. In kind it is in vivo.
Assay [6] has as its system Alternaria solani. As to the kind of experiment: Greenhouse Alternaria solani test in tomato, preventive. It counts as in vivo. As to conditions: 24 h, tomato plants sprayed one day before inoculation, read-out: Efficacy (% control), disease severity vs untreated check. Here is the method: Compounds were dissolved in 2% DMSO/Acetone & then mixed with water to calibrated spray volume of 50 ml. This 50 ml spray solution was poured into the spray bottles for further applications. To test the preventive activity of compounds, healthy young Tomato plants raised in the greenhouse were sprayed with active compound preparation at the stated application rates inside the spray cabinets using hallowcone nozzles. One day after treatment, the plants were inoculated with spore suspension (2% Malt) containing 0.24×10^6 Alternaria solani inoculum. The inoculated plants were then kept in greenhouse chamber at 22-24° C. temperature and 90-95% relative humidity for disease expression. […] Efficacy (% control) of the compounds was calculated by comparing the disease rating in the treatment with untreated control. The sprayed plants were also assessed for compound's phytotoxic effects by recording symptoms like necrosis, chlorosis and stunting.

As for `CCN(C)C=Nc1cc(C)c(Cc2ccc(C)cc2)cc1Cl` [Compound 44, N′-(2-chloro-5-methyl-4-(4-methylbenzyl)phenyl)-N-ethyl-N-methylformimidamide], the inhibition of growth at 300 ppm with Pyricularia oryzae [1] was > 75%; in the assay with Rhizoctonia solani, > 80%; in the assay with Botrytis cinerea it was > 80%; with Alternaria solani [2] it was > 75%; in the assay on Colletotrichum capsici, > 80%; in the assay with Septoria lycopersici, > 70%. Besides, the inhibition of growth at 300 ppm with Fusarium culmorum [3] came out at 75%. Moreover, in the assay with Pyricularia oryzae [4], the pest or weed control at 500 ppm fell in the range of 70 to 100%.

Take `CCN(C)C=Nc1cc(C)c(Cc2cc(C)ccc2C)cc1C` [Compound 26, N′-(4-(2,5-dimethylbenzyl)-2,5-dimethylphenyl)-N-ethyl-N-methylformimidamide]: the inhibition of growth at 300 ppm with Pyricularia oryzae [1] was > 75%; in the assay on Rhizoctonia solani it was > 80%; in the assay on Botrytis cinerea it was > 80%; in the assay with Alternaria solani [2] it was > 75%; with Colletotrichum capsici, > 80%; in the assay with Septoria lycopersici it was > 70%. The inhibition of growth at 300 ppm in the assay on Fusarium culmorum [3] was determined as 75%. The pest or weed control at 500 ppm in the assay with Pyricularia oryzae [4] lay within 70 to 100%.

Take `CCN(C)C=Nc1cc(C)c(Cc2cccc(C)c2C)cc1C` [Compound 112, N′-(4-(2,3-dimethylbenzyl)-2,5-dimethylphenyl)-N-ethyl-N-methylformimidamide]: the inhibition of growth at 300 ppm in the assay with Pyricularia oryzae [1] was > 75%; in the assay on Rhizoctonia solani, > 80%; in the assay with Alternaria solani [2], > 75%; in the assay with Colletotrichum capsici it was > 80%; in the assay on Septoria lycopersici, > 70%; in the assay with Fusarium culmorum [3] it was 75%. In the assay with Pyricularia oryzae [4], the pest or weed control at 500 ppm lay in the range of 70 to 100%.

As for `CCN(C)C=Nc1cc(Cl)c(Cc2cccc(F)c2)cc1Cl` [Compound 148, N′-(2,5-dichloro-4-(3-fluorobenzyl)phenyl)-N-ethyl-N-methylformimidamide], the inhibition of growth at 300 ppm with Pyricularia oryzae [1] and in the assay on Alternaria solani [2] was > 75% throughout. Besides, the pest or weed control at 500 ppm in the assay with Pyricularia oryzae [4] lay in the range of 70 to 100%.

As for `CCN(C)C=Nc1cc(C)c(Cc2ccc(Cl)c(C)c2)cc1Cl` [Compound 120, N′-(2-chloro-4-(4-chloro-3-methylbenzyl)-5-methylphenyl)-N-ethyl-N-methylformimidamide], the inhibition of growth at 300 ppm with Pyricularia oryzae [1] is > 75%; in the assay with Rhizoctonia solani it was > 80%; in the assay with Botrytis cinerea, > 80%; in the assay on Alternaria solani [2], > 75%; in the assay with Colletotrichum capsici, > 80%; with Fusarium culmorum [3] it was 75%. Also, the pest or weed control at 500 ppm with Pyricularia oryzae [4] is 70 to 100%.

`CCN(C)C=Nc1cc(C)c(Cc2ccccc2SC)cc1C` [Compound 23, N′-(2,5-dimethyl-4-(2-(methylthio)benzyl)phenyl)-N-ethyl-N-methylformimidamide]: the inhibition of growth at 300 ppm in the assay on Pyricularia oryzae [1] was > 75%; with Rhizoctonia solani it was > 80%; in the assay on Botrytis cinerea it was > 80%; with Alternaria solani [2], > 75%; in the assay on Colletotrichum capsici it was > 80%; in the assay on Septoria lycopersici it was > 70%. For the same compound, the inhibition of growth at 300 ppm in the assay on Fusarium culmorum [3] amounted to 75%. Also, the pest or weed control at 500 ppm with Fusarium culmorum [5], with Botrytis cinera and in the assay with Alternaria solani [6] was 70 to 100% in each case.

As to `CCN(C)C=Nc1cc(C)c(Cc2cc(F)cc(Cl)c2)cc1C` [Compound 135, N′-(4-(3-chloro-5-fluorobenzyl)-2,5-dimethylphenyl)-N-ethyl-N-methylformimidamide], the inhibition of growth at 300 ppm is > 75% in the assay on Pyricularia oryzae [1]; > 80% in the assay with Rhizoctonia solani; > 80% in the assay on Botrytis cinerea; > 75% with Alternaria solani [2]; > 80% with Colletotrichum capsici; > 70% in the assay with Septoria lycopersici. For the same compound, in the assay with Pyricularia oryzae [4], the pest or weed control at 500 ppm was in the range of 70 to 100%.
